Legend:
[1] = UV absorption of the compounds of Table 2 (absorption maximum and specific extinction); assay type: physicochemical; set-up: λmax: unit not given beside the values; settings: for λmax: UV absorption maximum; for E^11: specific extinction at λmax
[2] = used alone or in combination with UV-B filters; cited from earlier work

Which λmax ([1]; Table 2) does the source give for `CCCCC(CC)COC(=O)c1ccccc1NC=C(C(=O)OCC)C(=O)OCC` (stereo not drawn) [Compound 38] here?
The λmax was 335.

What about the “E^11” value ([1]; Table 2) of the same molecule?
The value was 630.

Which λmax ([1]; Table 2) does the source give for `CC(C)Oc1cccc(NC=C(C#N)C(=O)C(C)(C)C)c1` [Compound 12] here?
The λmax was 340.

And the “E^11” value ([1]; Table 2)?
The value was 829.

For `CC(C)(C)C(=O)C(C#N)=CNc1ccccc1C(=O)O` [Compound 15], which λmax ([1]; Table 2) is on record?
The λmax was 346.

And the “E^11” value ([1]; Table 2)?
The value was 965.

For `CCCCOC(=O)c1ccccc1NC=C(C#N)C(=O)C(C)(C)C` [Compound 21], which λmax ([1]; Table 2) is on record?
The λmax was 346.

And the “E^11” value ([1]; Table 2)?
The value was 825.

With `COC(=O)/C(=C\Nc1ccccc1C(=O)OC)C(C)=O` [Compound 30] as the molecule, how does the λmax ([1]; Table 2) read?
The λmax was 344.

And the “E^11” value ([1]; Table 2)?
Its value is 1008.

For `Cc1cccc(NC=C(C#N)C(=O)C(C)(C)C)c1` [Compound 2], which λmax ([1]; Table 2) is on record?
The λmax was 338.

And the “E^11” value ([1]; Table 2)?
The value was 978.

Which results are given for `CCCCc1ccc(NC=C(C#N)C(=O)C(C)(C)C)cc1` [Compound 5]?
λmax ([1]; Table 2): 342; E^11 ([1]; Table 2): 884

For `COc1ccc(NC=C(C#N)C(=O)C(C)(C)C)cc1` [Compound 3], which λmax ([1]; Table 2) is on record?
The λmax was 348.

What about the “E^11” value ([1]; Table 2) of the same molecule?
The value was 841.

Which λmax ([1]; Table 2) does the source give for `CCCCC(CC)COC(=O)c1ccc(NC=C(C#N)C(=O)c2ccccc2)cc1` (stereo not drawn) [Compound 43] here?
Its λmax is 362.

And the “E^11” value ([1]; Table 2)?
Its value is 869.

What does the source list for `CCCCC(CC)COC(=O)C(C#N)=CNc1ccc(C(=O)OCC)cc1` (stereo not drawn) [Compound 35]?
λmax ([1]; Table 2): 332; E^11 ([1]; Table 2): 1105

Which results are given for `COC(=O)c1ccccc1NC=C(C#N)C(=O)C(C)(C)C` [Compound 19]?
λmax ([1]; Table 2): 348; E^11 ([1]; Table 2): 995

For `CCCCC(CC)COC(=O)C(C#N)=CNc1ccc(OC)cc1OC` (stereo not drawn) [Compound 32], which λmax ([1]; Table 2) is on record?
Its λmax is 346.

What about the “E^11” value ([1]; Table 2) of the same molecule?
The value was 646.

For `CC(C)(C)C(=O)C(C#N)=CNc1ccc(S(=O)(=O)O)cc1.OCCN(CCO)CCO` [Compound 16], which λmax ([1]; Table 2) is on record?
The λmax was 340.

And the “E^11” value ([1]; Table 2, (water))?
The value was 666 (water).

With `COc1ccc(C(=O)CC(=O)c2ccc(C(C)(C)C)cc2)cc1` [PARSOL 1789, 4-(1,1-dimethylethyl)-4-methoxy-dibenzoylmethane] as the molecule, how does the photochemical stability [2] read?
Its photochemical stability is “not sufficiently photochemically stable”.

Which λmax ([1]; Table 2) does the source give for `CCCCC(CC)COC(=O)c1ccc(NC=C(C(C)=O)C(C)=O)cc1` (stereo not drawn) [Compound 27] here?
Its λmax is 346.

What about the “E^11” value ([1]; Table 2) of the same molecule?
The value was 1049.

Which results are given for `CC(C)(C)C(=O)C(C#N)=CNc1ccccc1C#N` [Compound 10]?
λmax ([1]; Table 2): 338; E^11 ([1]; Table 2): 995

Which λmax ([1]; Table 2) does the source give for `CCCCC(CC)COC(=O)C(C#N)=CNc1cc(OC)cc(OC)c1` (stereo not drawn) [Compound 34] here?
The λmax was 322.

What about the “E^11” value ([1]; Table 2) of the same molecule?
The value was 761.

What does the source list for `CCCCC(CC)COC(=O)C(C#N)=CNc1cc(OC)ccc1OC` (stereo not drawn) [Compound 33]?
λmax ([1]; Table 2): 350; E^11 ([1]; Table 2): 612

For `CC(C)COC(=O)c1ccccc1NC=C(C#N)C(=O)C(C)(C)C` [Compound 20], which λmax ([1]; Table 2) is on record?
The λmax was 348.

And the “E^11” value ([1]; Table 2)?
Its value is 864.

For `CCCCC(CC)COC(=O)c1ccccc1NC=C(C#N)C(=O)C(C)(C)C` (stereo not drawn) [Compound 9], which λmax ([1]; Table 2) is on record?
The λmax was 348.

What about the “E^11” value ([1]; Table 2) of the same molecule?
Its value is 717.

Which results are given for `CCCCC(CC)COC(=O)c1ccc(NC=C(C#N)C#N)cc1` (stereo not drawn) [Compound 41]?
λmax ([1]; Table 2): 330; E^11 ([1]; Table 2): 1191

What does the source list for `CCOC(=O)C(=CNc1ccccc1C(=O)OC)C(=O)OCC` [Compound 37]?
λmax ([1]; Table 2): 336; E^11 ([1]; Table 2): 890

With `CC(C)(C)C(=O)C(C#N)=CNc1ccc(S(=O)(=O)[O-])cc1.[Na+]` [Compound 17] as the molecule, how does the λmax ([1]; Table 2) read?
The λmax was 340.

What about the “E^11” value ([1]; Table 2, (water)) of the same molecule?
Its value is 1010 (water).

For `CC(C)(C)C(=O)C(C#N)=CNc1ccc(C(C)(C)C)cc1` [Compound 4], which λmax ([1]; Table 2) is on record?
Its λmax is 342.

What about the “E^11” value ([1]; Table 2) of the same molecule?
Its value is 888.

For `CCCCC(CC)COC(=O)c1ccc(NC=C(C#N)C(=O)C(C)(C)C)cc1` (stereo not drawn) [Compound 1], which λmax ([1]; Table 2) is on record?
Its λmax is 346.

And the “E^11” value ([1]; Table 2)?
Its value is 860.

Which λmax ([1]; Table 2) does the source give for `CC(C)(C)C(=O)C(C#N)=CNc1ccccc1C(=O)O.OCCN(CCO)CCO` [Compound 13] here?
Its λmax is 346.

What about the “E^11” value ([1]; Table 2, (water)) of the same molecule?
The value was 667 (water).

Which λmax ([1]; Table 2) does the source give for `CCCCC(CC)COC(=O)c1ccc(NC=C(C(=O)OCC)C(=O)OCC)cc1` (stereo not drawn) [Compound 39] here?
Its λmax is 320.

What about the “E^11” value ([1]; Table 2) of the same molecule?
Its value is 700.

Which λmax ([1]; Table 2) does the source give for `CCOc1ccccc1NC=C(C#N)C(=O)C(C)(C)C` [Compound 18] here?
Its λmax is 352.

What about the “E^11” value ([1]; Table 2) of the same molecule?
Its value is 876.

For `CCCCC(CC)COC(=O)c1ccccc1NC=C(C(C)=O)C(=O)OC(C)(C)C` (stereo not drawn) [Compound 31], which λmax ([1]; Table 2) is on record?
The λmax was 344.

What about the “E^11” value ([1]; Table 2) of the same molecule?
The value was 717.

Which λmax ([1]; Table 2) does the source give for `CCCCC(CC)COC(=O)c1ccc(NC=C2C(=O)OC(C)(C)OC2=O)cc1` (stereo not drawn) [Compound 44] here?
The λmax was 336.

What about the “E^11” value ([1]; Table 2) of the same molecule?
Its value is 896.

For `COc1ccc(OC)c(NC=C(C#N)C(=O)C(C)(C)C)c1` [Compound 14], which λmax ([1]; Table 2) is on record?
Its λmax is 362.

And the “E^11” value ([1]; Table 2)?
The value was 491.

For `COc1cccc(NC=C(C(C)=O)C(C)=O)c1` [Compound 26], which λmax ([1]; Table 2) is on record?
Its λmax is 336.

And the “E^11” value ([1]; Table 2)?
The value was 1035.

Which λmax ([1]; Table 2) does the source give for `CCCCC(CC)COC(=O)c1ccccc1NC=C1CCC(C)(C)CC1=O` (stereo not drawn) [Compound 40] here?
The λmax was 358.

And the “E^11” value ([1]; Table 2)?
Its value is 743.

Which λmax ([1]; Table 2) does the source give for `CCCCC(CC)COC(=O)c1ccccc1NC=C(C(C)=O)C(=O)CC` (stereo not drawn) [Compound 28] here?
Its λmax is 346.

What about the “E^11” value ([1]; Table 2) of the same molecule?
The value was 757.

What does the source list for `CC(C)c1ccc(NC=C(C#N)C(=O)C(C)(C)C)cc1` [Compound 7]?
λmax ([1]; Table 2): 342; E^11 ([1]; Table 2): 903

Which results are given for `CCCCC(CC)CNC(=O)c1ccc(NC=C(C#N)C(=O)C(C)(C)C)cc1` (stereo not drawn) [Compound 6]?
λmax ([1]; Table 2): 346; E^11 ([1]; Table 2): 773

For `CCCCC(CC)COC(=O)C(C#N)=CNc1ccccc1C(=O)OC` (stereo not drawn) [Compound 36], which λmax ([1]; Table 2) is on record?
Its λmax is 336.

And the “E^11” value ([1]; Table 2)?
The value was 752.

What does the source list for `CCCCC(CC)COC(=O)c1ccc(NC=C2C(=O)c3ccccc3C2=O)cc1` (stereo not drawn) [Compound 42]?
λmax ([1]; Table 2): 374; E^11 ([1]; Table 2): 1175

For `CCCCC(CC)COC(=O)c1ccc(NC=C(C(C)=O)C(=O)OC)cc1` (stereo not drawn) [Compound 29], which λmax ([1]; Table 2) is on record?
The λmax was 346.

And the “E^11” value ([1]; Table 2)?
Its value is 941.

Which λmax ([1]; Table 2) does the source give for `CCCCOC(=O)c1ccccc1NC=C(C(C)=O)C(C)=O` [Compound 25] here?
Its λmax is 344.

And the “E^11” value ([1]; Table 2)?
The value was 938.

Which λmax ([1]; Table 2) does the source give for `CCCc1ccc(NC=C(C#N)C(=O)C(C)(C)C)cc1` [Compound 8] here?
Its λmax is 342.

And the “E^11” value ([1]; Table 2)?
Its value is 918.
